In patent US12350270B2, “Antimalarial agents” (Merck Sharp & Dohme LLC, priority 2019, dated 2025):

Each compound was assayed on parasites (ring stage, in human red blood cell culture) (assay: Parasite LDH growth assay (antiparasite potency, Parasite Assay)). Conditions: Plasmodium falciparum, Erythrocyte, 72 h, 0.7% rings, 2% haematocrit, 72 hours at 37° C., LDH readout of parasite growth.
Type: cell-based, Plasmodium falciparum
Outline: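 Ring-stage parasites at 0.7% parasitemia and 2% haematocrit, in RPMI-Hepes/bicarbonate with 5% heat-inactivated human serum and 0.5% albumax, were added to compound-containing medium. Cultures grew 72 h at 37 °C in gassed humidified boxes. Plates were then frozen overnight at −80 °C, thawed 4 h, and growth was measured by LDH assay.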

| Compound | EC50 [nM] |
| --- | --- |
| CC1(C)CC(=O)N([C@@H]2CCS(=O)(=O)c3ccc(C(=O)N[C@H]4CC(C)(C)Oc5ccccc54)cc32)C(=N)N1 [Example 220, (4R)-N-[(4S)-2,2-dimethylchroman-4-yl]-4-(2-imino-4,4-dimethyl-6-oxo-hexahydropyrimidin-1-yl)-1,1-dioxo-3,4-dihydro-2H-thiochromene-6-carboxamide] | 2.9 |
| CC1(C)CC(=O)N([C@H]2CCS(=O)(=O)c3ccc(C(=O)N[C@H]4CC(C)(C)Oc5ccccc54)cc32)C(=N)N1 [Example 221, (4S)-N-[(4S)-2,2-dimethylchroman-4-yl]-4-(2-imino-4,4-dimethyl-6-oxo-hexahydropyrimidin-1-yl)-1,1-dioxo-3,4-dihydro-2H-thiochromene-6-carboxamide] | 190 |
| CCC1(CC)CC(=O)N([C@@H]2CCS(=O)(=O)c3ccc(C(=O)N[C@@H]4c5ccccc5C[C@H]4O)cc32)C(=N)N1 [Example 222, (4R)-4-(4,4-diethyl-2-imino-6-oxo-hexahydropyrimidin-1-yl)-N-[(1R,2R)-2-hydroxyindan-1-yl]-1,1-dioxo-3,4-dihydro-2H-thiochromene-6-carboxamide] | 15.6 |
| CCC1(CC)CC(=O)N([C@H]2CCS(=O)(=O)c3ccc(C(=O)N[C@@H]4c5ccccc5C[C@H]4O)cc32)C(=N)N1 [Example 223, (4S)-4-(4,4-diethyl-2-imino-6-oxo-hexahydropyrimidin-1-yl)-N-[(1R,2R)-2-hydroxyindan-1-yl]-1,1-dioxo-3,4-dihydro-2H-thiochromene-6-carboxamide] | 300 |
| CC[C@]1(C)CC(=O)N([C@@H]2CCOc3ccc(C(=O)N[C@@H]4c5cc(F)ccc5OC(C)(C)[C@H]4O)cc32)C(=N)N1 [Example 224, (4R)-4-[(4R)-4-ethyl-2-imino-4-methyl-6-oxo-hexahydropyrimidin-1-yl]-N-[(3S,4R)-6-fluoro-3-hydroxy-2,2-dimethyl-chroman-4-yl]chromane-6-carboxamide] | 0.3 |
| CC[C@@]1(C)CC(=O)N([C@@H]2CCOc3ccc(C(=O)N[C@@H]4c5cc(F)ccc5OC(C)(C)[C@H]4O)cc32)C(=N)N1 [Example 225, (4R)-4-[(4S)-4-ethyl-2-imino-4-methyl-6-oxo-hexahydropyrimidin-1-yl]-N-[(3S,4R)-6-fluoro-3-hydroxy-2,2-dimethyl-chroman-4-yl]chromane-6-carboxamide] | 0.8 |
| CCC1(CC)CC(=O)N([C@@H]2CCOc3ccc(C(=O)NC4c5ccccc5C(F)(F)C4(C)C)cc32)C(=N)N1 (stereo partly drawn) [Example 227, (4R)-4-(4,4-diethyl-2-imino-6-oxo-hexahydropyrimidin-1-yl)-N-(3,3-difluoro-2,2-dimethyl-indan-1-yl)chromane-6-carboxamide] | 1.3 |
| CC1(C)CC(=O)N(C2CCS(=O)(=O)c3ccc(C(=O)N[C@@H]4c5ccccc5OC[C@@]4(C)O)cc32)C(=N)N1 (stereo partly drawn) [Example 228, N-[(3S,4R)-3-hydroxy-3-methyl-chroman-4-yl]-4-(2-imino-4,4-dimethyl-6-oxo-hexahydropyrimidin-1-yl)-1,1-dioxo-3,4-dihydro-2H-thiochromene-6-carboxamide] | 282 |
| CC1(C)CC(=O)N(C2CCS(=O)(=O)c3ccc(C(=O)N[C@@H]4c5ccccc5OC[C@]4(C)O)cc32)C(=N)N1 (stereo partly drawn) [Example 229, N-[(3R,4R)-3-hydroxy-3-methyl-chroman-4-yl]-4-(2-imino-4,4-dimethyl-6-oxo-hexahydropyrimidin-1-yl)-1,1-dioxo-3,4-dihydro-2H-thiochromene-6-carboxamide] | 59.3 |
| CC[C@]1(C)CC(=O)N([C@@H]2CCOc3ccc(C(=O)N[C@@H]4c5cc(Cl)ccc5OC[C@@]4(C)O)cc32)C(=N)N1 [Example 230, (4R)-N-[(3S,4R)-6-chloro-3-hydroxy-3-methyl-chroman-4-yl]-4-[(4R)-4-ethyl-2-imino-4-methyl-6-oxo-hexahydropyimidin-1-yl]chromane-6-carboxamide] | 2.7 |
| CCC1(CC)CC(=O)N([C@@H]2CCOc3ccc(C(=O)N[C@@H]4c5cc(Cl)ccc5OC[C@H]4O)cc32)C(=N)N1 [Example 231, (4R)-N-[(3S,4R)-6-chloro-3-hydroxy-chroman-4-yl]-4-(4,4-diethyl-2-imino-6-oxo-hexahydropyrimidin-1-yl)chromane-6-carboxamide] | 7.4 |
| CC[C@]1(C)CC(=O)N([C@H]2c3cc(C(=O)N[C@@H]4c5ccccc5C(F)(F)[C@H]4O)ccc3OC[C@@H]2OC)C(=N)N1 [Example 232, (3R,4S)-N-[(1R,2S)-3,3-difluoro-2-hydroxy-indan-1-yl]-4-[(4R)-4-ethyl-2-imino-4-methyl-6-oxo-hexahydropyrimidin-1-yl]-3-methoxy-chromane-6-carboxamide] | 21.8 |
| CCC1(CC)CC(=O)N([C@@H]2CCOc3ccc(C(=O)NC(CC4CCCCC4)c4ccccc4)cc32)C(=N)N1 (stereo partly drawn) [Example 233, (4R)-N-(2-cyclohexyl-1-phenyl-ethyl)-4-(4,4-diethyl-2-imino-6-oxo-hexahydropyrimidin-1-yl)chromane-6-carboxamide] | 7.9 |
| CCC1(CC)CC(=O)N([C@H]2c3cc(C(=O)N[C@@H]4c5ccccc5C[C@@]4(C)O)ccc3OC[C@H]2COC)C(=N)N1 [Example 235, (3R,4R)-4-(4,4-diethyl-2-imino-6-oxo-hexahydropyrimidin-1-yl)-N-[(1R,2R)-2-hydroxy-2-methyl-indan-1-yl]-3-(methoxymethyl)chromane-6-carboxamide] | 0.7 |
| CCC1(CC)CC(=O)N([C@@H]2C[C@@H](OC)c3ccc(C(=O)N[C@@H]4c5ccccc5OC(C)(C)[C@H]4O)cc32)C(=N)N1 [Example 236, (1R,3R)-3-(4,4-diethyl-2-imino-6-oxo-hexahydropyrimidin-1-yl)-N-[(3S,4R)-3-hydroxy-2,2-dimethyl-chroman-4-yl]-1-methoxy-indane-5-carboxamide] | 0.9 |
| CCC1(CC)CC(=O)N([C@H]2C[C@H](OC)c3ccc(C(=O)N[C@@H]4c5ccccc5OC(C)(C)[C@H]4O)cc32)C(=N)N1 [Example 237, (1S,3S)-3-(4,4-diethyl-2-imino-6-oxo-hexahydropyrimidin-1-yl)-N-[(3S,4R)-3-hydroxy-2,2-dimethyl-chroman-4-yl]-1-methoxy-indane-5-carboxamide] | 240 |
| CCC1(CC)CC(=O)N([C@H]2C[C@@H](OC)c3ccc(C(=O)N[C@@H]4c5ccccc5OC(C)(C)[C@H]4O)cc32)C(=N)N1 [Example 238, (1R,3S)-3-(4,4-diethyl-2-imino-6-oxo-hexahydropyrimidin-1-yl)-N-[(3S,4R)-3-hydroxy-2,2-dimethyl-chroman-4-yl]-1-methoxy-indane-5-carboxamide] | 47.8 |
| CCC1(CC)CC(=O)N([C@@H]2C[C@H](OC)c3ccc(C(=O)N[C@@H]4c5ccccc5OC(C)(C)[C@H]4O)cc32)C(=N)N1 [Example 239, (1S,3R)-3-(4,4-diethyl-2-imino-6-oxo-hexahydropyrimidin-1-yl)-N-[(3S,4R)-3-hydroxy-2,2-dimethyl-chroman-4-yl]-1-methoxy-indane-5-carboxamide] | 0.9 |
| CCC1(CC)CC(=O)N([C@H]2c3cc(C(=O)N[C@@H]4c5ccccc5OC(C)(C)[C@H]4O)ccc3OC[C@@H]2C)C(=N)N1 [Example 240, (3R,4R)-4-(4,4-diethyl-2-imino-6-oxo-hexahydropyrimidin-1-yl)-N-[(3S,4R)-3-hydroxy-2,2-dimethyl-chroman-4-yl]-3-methyl-chromane-6-carboxamide] | 0.6 |
| CCC1(CC)CC(=O)N([C@H]2c3cc(C(=O)N[C@@H]4c5ccccc5OC(C)(C)[C@H]4O)ccc3OC[C@H]2C)C(=N)N1 [Example 241, (3S,4R)-4-(4,4-diethyl-2-imino-6-oxo-hexahydropyrimidin-1-yl)-N-[(3S,4R)-3-hydroxy-2,2-dimethyl-chroman-4-yl]-3-methyl-chromane-6-carboxamide] | 0.4 |
| CC[C@]1(C)CC(=O)N(C2c3cc(C(=O)N[C@@H]4c5ccccc5OC(C)(C)[C@H]4O)ccc3OCC2(C)C)C(=N)N1 (stereo partly drawn) [Example 243, 4-[(4R)-4-ethyl-2-imino-4-methyl-6-oxo-hexahydropyrimidin-1-yl]-N-[(3S,4R)-3-hydroxy-2,2-dimethyl-chroman-4-yl]-3,3-dimethyl-chromane-6-carboxamide] | 6.1 |
| CCC1(CC)CC(=O)N(C2c3cc(C(=O)N[C@@H]4c5ccccc5C[C@H]4O)ccc3OCC2(C)COC)C(=N)N1 (stereo partly drawn) [Example 244, 4-(4,4-diethyl-2-imino-6-oxo-hexahydropyrimidin-1-yl)-N-[(1R,2R)-2-hydroxyindan-1-yl]-3-(methoxymethyl)-3-methyl-chromane-6-carboxamide] | 7.8 |
| CCC1(CC)CC(=O)N([C@H]2c3cc(C(=O)N[C@@H]4c5ccccc5OC(C)(C)[C@H]4O)ccc3OC2(C)C)C(=N)N1 [Example 245, (3S)-3-(4,4-diethyl-2-imino-6-oxo-hexahydropyrimidin-1-yl)-N-[(3S,4R)-3-hydroxy-2,2-dimethyl-chroman-4-yl]-2,2-dimethyl-3H-benzofuran-5-carboxamide] | 0.8 |
| CCC1(CC)CC(=O)N([C@@H]2C[C@@H](C)Oc3ccc(C(=O)N[C@@H]4c5ccccc5OC(C)(C)[C@H]4O)cc32)C(=N)N1 [Example 246, (2R,4R)-4-(4,4-diethyl-2-imino-6-oxo-hexahydropyrimidin-1-yl)-N-[(3S,4R)-3-hydroxy-2,2-dimethyl-chroman-4-yl]-2-methyl-chromane-6-carboxamide] | 2 |
| CCC1(CC)CC(=O)N([C@H]2c3cc(C(=O)N[C@@H]4c5ccccc5OC[C@@]4(C)O)ccc3CC[C@@H]2OC)C(=N)N1 [Example 247, (3S,4S)-4-(4,4-diethyl-2-imino-6-oxo-hexahydropyrimidin-1-yl)-N-[(3S,4R)-3-hydroxy-3-methyl-chroman-4-yl]-3-methoxy-tetralin-6-carboxamide] | 4.5 |
| CCC1(CC)CC(=O)N([C@@H]2CCCOc3ccc(C(=O)N[C@@H]4c5ccccc5OC(C)(C)[C@H]4O)cc32)C(=N)N1 [Example 248, (5R)-5-(4,4-diethyl-2-imino-6-oxo-hexahydropyrimidin-1-yl)-N-[(3S,4R)-3-hydroxy-2,2-dimethyl-chroman-4-yl]-2,3,4,5-tetrahydro-1-benzoxepine-7-carboxamide] | 0.8 |
